Test results reported in patent US12448374B2, “Inhibitors of SARM1” (Disarm Therapeutics, Inc., priority 2018, dated 2025).

These molecules were tested on mouse dorsal root ganglion (DRG) neurons (assay: Axon degeneration assay in mouse DRG drop culture). Conditions: DRG neuron, protection of axon fragmentation, axonal transection or chemotoxic stimuli.
Format: cell-based
Procedure: This Example illustrates an in vitro axon degeneration assay used to characterize compounds of Formula I. This assay is used to test the efficacy of the compounds of Formula I to prevent axonal degeneration in a mouse dorsal root ganglion (DRG) drop culture.
Mouse DRG Drop culture: Mouse dorsal root ganglion neurons (DRGs) were dissected out of E12.5 CD1 mice (50 ganglion per embryo) and incubated with 0.5% Trypsin solution containing 0.02% EDTA (Gibco) at 37° C. for 15 min. The cells were then triturated by gentle pipetting and washed 3 times with DRG growth medium (Neurobasal medium (Gibco) containing 2% B27 (Invitrogen), 100 ng/ml 2.5S NGF (Harland Bioproducts), 1 mM 5-fluoro-2′ deoxyuridine (Sigma), penicillin, and streptomycin). Cells were suspended in the DRG growth medium. DRG drop cultures were created by spotting 5000 cells/well into the center of each well of a 96-well tissue culture plate coated with poly-D-Lysine (0.1 mg/ml; Sigma) and laminin ([…]; Invitrogen). Cells were allowed to adhere to the plates in a humidified tissue culture incubator (5% CO2) for 15 min and then DRG growth medium was gently added ([…]).
Axon degeneration assay: Axonal degeneration was stimulated either by manual axonal transection using a scalpel blade, or chemotoxic stimuli. After an appropriate experimental time period, the DRG cultures were fixed in 1% PFA plus sucrose and kept in the fridge prior to imaging. Bright-field images of DRG axons and cell bodies were collected using the 20× water immersion lens of a Phenix automated confocal microscope (PerkinElmer) and quantitation of axonal performed using in-house developed scripts (Acapella, PerkinElmer).

| Structure (SMILES) | IC50 [µM] |
| --- | --- |
| Brc1c[nH]c2cnccc12 [Example 7] | < 10 |
| Ic1c[nH]c2cnccc12 [Example 4] | < 10 |
| Brc1csc2cnccc12 [Example 30] | 10 to 30 |

Each molecule was assayed against T1, SARM1 SAM-TIR (Homo sapiens, UniProt Q6SZW1) (assay: SAM-TIR SARM1 IC50 assay (NADase activity, NAD+ cleavage)). Conditions: SAM-TIR lysate 5 μg/mL, 2 h pre-incubation, 5 μM NAD+, RapidFire MS readout.
T1 construct: This assay makes use of a fragment of the SARM1 molecule encompassing the SAM and TIR domains; made in house; host or cells: NRK1-HEK293T cells (transient transfection; clarified sonicated lysate used without purification)
T1 sequence (Q6SZW1 409-724 limits assumed): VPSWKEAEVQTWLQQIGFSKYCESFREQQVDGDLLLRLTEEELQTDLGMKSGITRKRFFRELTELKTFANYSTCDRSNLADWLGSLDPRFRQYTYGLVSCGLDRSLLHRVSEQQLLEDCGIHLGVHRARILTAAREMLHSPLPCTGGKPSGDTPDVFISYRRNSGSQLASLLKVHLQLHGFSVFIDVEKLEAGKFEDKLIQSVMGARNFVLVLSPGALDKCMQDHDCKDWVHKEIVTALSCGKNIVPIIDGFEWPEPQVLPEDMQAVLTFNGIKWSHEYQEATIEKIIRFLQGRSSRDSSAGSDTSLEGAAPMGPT
Format: biochemical
Description: This Example describes an assay of SAM-TIR NADase activity and use of this assay to measure the efficacy of compounds of Formula I to block SARM1 mediated NAD+ cleavage. This assay is optimized in such a way as to characterize the efficacy of the compounds in Formula I to inhibit SARM1 activity and to calculate an IC50 value for each compound. This assay makes use of a fragment of the SARM1 molecule encompassing the SAM and TIR domains.
NRK1-HEK293T cells refers to a cell line that has been stably e transfected with an FCIV expression vector that expresses human Nicotinamide Riboside Kinase 1 (NRK1), an enzyme that converts the NAD+ biosynthetic precursor nicotinamide riboside (NR) to NMN, the immediate precursor of NAD+. When provided with NR this cell line augments intracellular NAD+ levels and maintains cell viability, when expressing SARM1 SAM-TIR. FIG. 2 illustrates that a NRK1-HEK293T stable line with NR supplementation maintains higher NAD+ levels upon SARM1-TIR expression. Data was generated from three independent NAD+ measurements from three independent transfection experiments, and normalized to data from a non-transfected experiment run concurrently. Data are presented as mean±SEM; Error bars: SEM; ***P<0.001 two tailed student's t-test.
NRK1-HEK293T cells were seeded onto 150 cm^2 plates at 20×10^6 cells per plate. The next day, the cells were transfected with 15 μg FCIV-SST (SAM-TIR expression plasmid, SEQ ID NO: 1) using X-[…]™ 9 DNA Transfection Reagent (Roche product #06365787001).
The cultures were supplemented with 1 mM NR at time of transfection to minimize toxicity from SAM-TIR overexpression. Forty-eight hours after transfection, cells were harvested, pelleted by centrifugation at 1,000 rpm (Sorvall ST 16R centrifuge, Thermo Fisher), and washed once with cold PBS (0.01 M phosphate buffered saline NaCl 0.138 M; KCl 0.0027 M; pH 7.4). The cells were resuspended in PBS with protease inhibitors (cOmplete™ protease inhibitor cocktail, Roche product #11873580001) and cell lysates were prepared by sonication (Branson Sonifer 450, output=3, 20 episodes of stroke). The lysates were centrifuged (12,000×g for 10 min at 4° C.) to remove cell debris and the supernatants (containing SARM1 SAM-TIR protein) were stored at −80° C. for later use in the in vitro SARM1 SAM-TIR NADase assay (see below). Protein concentration was determined by the Bicinchoninic (BCA) method and used to normalize lysate concentrations.
The enzymatic assay was performed in a 384-well polypropylene plate in Dulbecco's PBS buffer in a final assay volume of 20 μL. SAM-TIR lysate with a final concentration of 5 μg/mL was pre-incubated with the respective compound at 1% DMSO final assay concentration over 2 h at room temperature. The reaction was initiated by addition of 5 μM final assay concentration of NAD+ as substrate. After a 2 hr room temperature incubation, the reaction was terminated with 40 μL of stop solution of 7.5% trichloroactetic acid in acetonitrile. The NAD+ and ADPR concentrations were analyzed by a RapidFire High Throughput Mass Spectrometry System (Agilent Technologies, Santa Clara, CA) using an API4000 triple quadrupole mass spectrometer (AB Sciex Framingham, MA).

| Structure (SMILES) | IC50 [µM] |
| --- | --- |
| Brc1c[nH]c2cnccc12 [Example 7] | < 10 |
| Ic1c[nH]c2cnccc12 [Example 4] | < 10 |
| Clc1c[nH]c2cnccc12 [Example 9] | < 10 |
| CCOC(=O)c1[nH]c2cnccc2c1Br [Example 38] | > 50 |
| CCn1cc(I)c2ccncc21 [Example 14] | < 10 |
| COCCCn1cc(Br)c2ccncc21 [Example 10] | > 50 |
| Ic1c[nH]c2nnccc12 [Example 42] | > 50 |
| NC(=O)Cn1cc(Br)c2ccncc21 [Example 11] | > 50 |
| c1cc2ccsc2cn1 [Example 33] | < 10 |
| Cn1cc(I)c2ccncc21 [Example 15] | < 10 |
| O=S1(=O)C=C(Br)c2ccncc21 [Example 40] | 30 to 50 |
| Brc1cccc2nncn12 [Example 3] | > 50 |
| Clc1nccc2c(Br)c[nH]c12 [Example 6] | < 10 |
| Ic1csc2cnncc12 [Example 41] | < 10 |
| Brc1csc2cnccc12 [Example 30] | < 10 |
| N#Cc1cc2ccncc2[nH]1 [Example 37] | > 50 |
| CC(C)n1cc(Br)c2ccncc21 [Example 13] | 30 to 50 |
| Cc1ccc2nc[nH]c2c1Br [Example 29] | 30 to 50 |
| Brc1c[nH]c2nnccc12 [Example 44] | > 50 |
| Brc1csc2cnncc12 [Example 43] | < 10 |
| Oc1nnc2cnccn12 [Example 27] | > 50 |
| Brc1n[nH]c2cnccc12 [Example 31] | 10 to 30 |
| Brc1cncc2[nH]ncc12 [Example 32] | < 10 |
| Brc1cccc2[nH]ncc12 [Example 5] | 10 to 30 |
| Cn1cc(Br)c2ccncc21 [Example 16] | < 10 |
| COCCn1cc(Br)c2ccncc21 [Example 12] | 30 to 50 |
| Cn1cnc2cnccc21 [Example 28] | < 10 |
